We go through 2 molecules from paper PMC9208756, “A dual-target herbicidal inhibitor of lysine biosynthesis” (eLife, 2022).

The target in experiment [1] is T1, AtDHDPS1 (Arabidopsis thaliana, UniProt Q9LZX6).
T1 construct: made in house
T1 sequence (Q9LZX6 40-365): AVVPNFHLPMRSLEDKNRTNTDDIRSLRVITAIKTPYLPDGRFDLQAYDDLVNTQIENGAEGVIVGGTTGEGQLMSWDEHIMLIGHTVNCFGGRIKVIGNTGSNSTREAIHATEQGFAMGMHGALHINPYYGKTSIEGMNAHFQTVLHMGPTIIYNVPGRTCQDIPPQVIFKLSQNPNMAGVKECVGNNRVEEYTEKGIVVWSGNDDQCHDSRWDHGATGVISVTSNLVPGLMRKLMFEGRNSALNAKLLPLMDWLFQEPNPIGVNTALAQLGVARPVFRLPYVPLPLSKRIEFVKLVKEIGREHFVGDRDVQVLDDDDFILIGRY
As to the kind of experiment: DHDPS enzyme inhibition assay, recombinant AtDHDPS1. It is filed as biochemical.

For experiment [2], the target named is T2, AtDHDPR1 (Arabidopsis thaliana, UniProt O80574).
T2 construct: made in house
T2 sequence (O80574 52-347): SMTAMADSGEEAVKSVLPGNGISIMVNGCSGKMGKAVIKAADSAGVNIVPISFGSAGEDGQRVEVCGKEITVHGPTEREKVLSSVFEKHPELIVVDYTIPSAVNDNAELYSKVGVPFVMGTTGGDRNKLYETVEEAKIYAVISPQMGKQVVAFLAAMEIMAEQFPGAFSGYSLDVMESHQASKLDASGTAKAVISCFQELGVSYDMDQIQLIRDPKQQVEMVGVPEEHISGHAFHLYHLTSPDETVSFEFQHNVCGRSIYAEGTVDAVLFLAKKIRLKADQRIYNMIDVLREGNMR
As to the kind of experiment: DHDPR enzyme inhibition assay, recombinant AtDHDPR1. The class given is biochemical. The procedure:
(§1) Briefly, reaction mixtures were incubated at 30℃ for 12 min before a second 60-s incubation following the addition of excess E. coli DHDPS (51 µg ml^−1) for generation of the DHDP substrate. The relevant DHDPR isoform (2.6 µg ml^−1) was added to initiate the reaction, and substrate turnover measured spectrophotometrically at 340 nm via the associated oxidation of the cofactor NADPH. Experiments were performed in technical triplicates.

The target of experiment [3] is T3, AtDHDPR2 (Arabidopsis thaliana, UniProt Q8LB01).
T3 construct: made in house
T3 sequence (Q8LB01 54-349): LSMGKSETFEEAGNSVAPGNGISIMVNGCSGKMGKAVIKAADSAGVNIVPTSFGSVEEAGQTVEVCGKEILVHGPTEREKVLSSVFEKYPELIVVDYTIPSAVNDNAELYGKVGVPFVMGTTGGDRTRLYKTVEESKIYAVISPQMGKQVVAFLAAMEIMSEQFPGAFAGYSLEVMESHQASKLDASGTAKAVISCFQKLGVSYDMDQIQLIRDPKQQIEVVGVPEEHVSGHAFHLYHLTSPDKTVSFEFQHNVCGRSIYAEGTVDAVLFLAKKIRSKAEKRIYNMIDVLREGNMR
The experiment is described as follows: DHDPR enzyme inhibition assay, recombinant AtDHDPR2. The class given is biochemical. The protocol: as §1

Experiment [4] concerns the target T4, AtDHDPS2 (Arabidopsis thaliana, UniProt Q9FVC8).
T4 construct: made in house
T4 sequence (Q9FVC8 40-365): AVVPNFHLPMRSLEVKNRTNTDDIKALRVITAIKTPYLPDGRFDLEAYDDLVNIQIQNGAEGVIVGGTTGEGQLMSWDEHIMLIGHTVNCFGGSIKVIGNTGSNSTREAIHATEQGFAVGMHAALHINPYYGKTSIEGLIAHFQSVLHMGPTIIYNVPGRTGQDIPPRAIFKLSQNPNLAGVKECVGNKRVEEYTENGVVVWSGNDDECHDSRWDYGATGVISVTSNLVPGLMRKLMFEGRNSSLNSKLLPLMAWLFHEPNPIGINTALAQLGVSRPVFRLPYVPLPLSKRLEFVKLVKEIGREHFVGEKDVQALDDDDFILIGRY
The experiment is described as follows: DHDPS enzyme inhibition assay, recombinant AtDHDPS2. The class given is biochemical.

Experiment [5] has as its system AtDHDPR. The experiment is described as follows: DHDPR enzyme inhibition, comparisons over both isoforms. The class given is biochemical, Arabidopsis thaliana. The protocol:
as §1

Experiment [6] has as its system Lolium rigidum. The experiment is described as follows: Herbicidal activity, pre-emergence treatment of soil-grown plants. It is filed as in vivo. The protocol: . Pre-wet seed-raising soil (pH 5.5) (Biogro, Dandenong South, VIC, Australia) supplemented with 0.22% (wt/wt) Nutricote N12 Micro 140 day-controlled release fertiliser (Yates, Sydney, NSW, Australia) was used. Ten seeds were sown at a depth of 0.5 cm into pots of pre-wet soil, following stratification at 4℃ for 21 days in the dark. Compounds dissolved in DMSO were diluted to working concentrations in H2O containing 0.01% (vol/vol) Agral (Syngenta, North Ryde, NSW, Australia) to a final DMSO concentration of 2% (vol/vol). Treatments were given by pipetting 2.0 ml of MBDTA-2, vehicle control or positive control (chlorosulfuron PESTANAL [Sigma-Aldrich, North Ryde, NSW, Australia]) directly onto seeds upon sowing and on each of the subsequent 2 days. Plants were grown in a chamber at 22℃ under a 16 hr light (100 µmol m^−2 s^−1)/8 hr dark schedule for 14 days before photos were taken. Roots and shoots were separated prior to drying at 70℃ for 72 hr. Experiments were performed in biological triplicates.

Experiment [7] deals with T4, AtDHDPS2. On the set-up: method as in Soares da Costa et al., 2021. As to conditions: previously reported; ref Soares da Costa et al., 2021; cited from earlier work.
The mark [8] stands for this setting: [HBDTA] 0.000125 M, replicates 1-3.
Setting [9] is: [HBDTA-2] 0.000125 M, replicates 1-3.
Where [10] appears, read: [HBDTA-2] 0.0005 M, replicates 1-3.
[11] abbreviates: 1200 mg l^−1, three pre-emergence treatments, 14 days, vs vehicle.
[12] abbreviates: Treated, 1200 mg l^−1, biological triplicates.
Where [13] appears, read: [MBDTA-2] 0.000125 M, limiting substrate and cofactor, replicates 1-3.

Several values for one entry are separate records, joined by “and”; a condition that tells them apart may be missing. Identical values can stand only once. Like-named read-outs stand apart in the source and are kept apart here.

Usually remaining activity stands for what remains of the control signal, in per cent. One may read the IC50 as the point on the concentration scale where inhibition reaches its midpoint. Turning to `O=C(O)CN1C(=O)S/C(=C\c2ccc(O)cc2)C1=O` [HBDTA, (Z)-2-(5-(4-hydroxybenzylidene)-2,4-dioxothiazolidin-3-yl)acetic acid], the remaining activity at 125 µM was found to be 31.1% in experiment [1] (setting [8]), 83.9% in experiment [2] (setting [9]), 65.7% in experiment [3] (setting [9]) and 37% in experiment [4] (setting [8]). In addition, the IC50 in experiment [1] (recombinant enzyme) came to 100 ± 0.95 µM; in experiment [2] (substrate and cofactor at limiting concentrations, read-out: IC50 against AtDHDPR1), 169 ± 0.92 µM; in experiment [3] (substrate and cofactor at limiting concentrations, read-out: IC50 against AtDHDPR2), 155 ± 0.9 µM; in experiment [4] (recombinant enzyme) it was 105 ± 1.04 µM. Besides, the remaining activity at 250 µM in experiment [2] ([HBDTA-2] 0.00025 M, replicates 1-3) turned out to be 8.06%. For the same molecule, the remaining activity at 500 µM in experiment [2] (setting [10]) and in experiment [3] (setting [10]) was 0% each time. Further, in experiment [5] (ratio of IC50 values), the “fold less potent at the DHDPR target site relative to MBDTA-2” value is listed as more than 18 fold.
In the case of `COc1ccc(/C=C2\SC(=O)N(CC(=O)O)C2=O)cc1` [MBDTA-2, (Z)-2-(5-(4-methoxybenzylidene)-2,4-dioxothiazolidin-3-yl)acetic acid], the “effect on germination and growth” value in experiment [6] (1200 mg l^−1) was “inhibition of plant germination and growth”. In addition, in experiment [6] (setting [11]), the “fold reduction in root dry weight” value was ~ 2 fold. For the same molecule, the “fold reduction in shoot dry weight” value in experiment [6] (setting [11]) was ~ 5 fold. In experiment [6] (setting [11]), the “fold reduction in shoot fresh weight” value is reported as ~ 4 fold. Further, the “Dry Weight, Roots” value in experiment [6] (setting [12]) was 7 mg and 10 mg. Moreover, the “Dry Weight, Shoots” value in experiment [6] (setting [12]) was 10 mg and 8 mg. For the same molecule, the “Fresh Weight, Roots” value in experiment [6] (setting [12]) is 44 mg and 33 mg and 58 mg. In addition, the “Fresh Weight, Shoots” value in experiment [6] (setting [12]) was 71 mg and 107 mg and 109 mg. In addition, the figures for the “fold greater IC50 with excess vs limiting substrate and cofactor” value in experiment [2] (AtDHDPR1) and in experiment [3] (AtDHDPR2) were 10 fold and 8 fold, respectively. In addition, the half-inhibitory concentration (IC50) in experiment [2] (IC50 against AtDHDPR1, excess substrate and nucleotide cofactor, 10-fold above KM) was 72.7 ± 1.07 µM; in experiment [2] (IC50 against AtDHDPR1, substrate and cofactor at limiting concentrations), 6.92 ± 0.92 µM; in experiment [7], 64 ± 1 µM; in experiment [3] (IC50 against AtDHDPR2, excess substrate and nucleotide cofactor, 10-fold above KM), 69.5 ± 1.06 µM; in experiment [3] (IC50 against AtDHDPR2, substrate and cofactor at limiting concentrations), 8.58 ± 1.19 µM. The remaining activity at 125 µM in experiment [2] (setting [13]) stood at 9.11%; in experiment [2] ([MBDTA-2] 0.000125 M, saturating substrate and cofactor, replicates 1-3), 7.04%; in experiment [3] (setting [13]), 0%. Besides, the remaining activity at 250 µM in experiment [3] ([MBDTA-2] 0.00025 M, limiting substrate and cofactor, replicates 1-3) came to 0%. In experiment [3] ([MBDTA-2] 0.0005 M, saturating substrate and cofactor, replicates 1-3), the remaining activity at 500 µM turned out to be 0.507%. Further, in experiment [5] (from IC50 shift with excess substrate and cofactor), the mechanism of inhibition entry is reported as “competitive inhibitor”.
